According to ChEMBL document CHEMBL1201862, “PubChem BioAssay data set” (2004):
Calls of active or inactive are those of the source. Peptide text beside a SMILES is read from it. * marks the point of attachment. Cbz = O=C(OCc1ccccc1)*

Legend:
Prothrombin = Prothrombin (Bos taurus, UniProt P00735); test: thrombin protease inhibitors – biochemical, fluorescence polarization, uHTS hits, dose response (AID 602369); type: functional
H4 = test: Luminescence Cell-Based Dose Response HTS to Identify Activators of 5'UTR Stem-Loop Driven Prion Protein mRNA Translation in H4 Neuroglioblastoma Cells. [Related pubchem assays: 1829 (Project Summary), 1814 (Primary HTS)]; type: functional; details: Homo sapiens
[1] = biological target: 72 kDa type IV collagenase (Homo sapiens, UniProt P08253); test: Dose Response validation of uHTS RPN11 inhibitor hits using a MMP-2 Fluorescence assay.; type: functional
Sequence of 72 kDa type IV collagenase (P08253 whole entry): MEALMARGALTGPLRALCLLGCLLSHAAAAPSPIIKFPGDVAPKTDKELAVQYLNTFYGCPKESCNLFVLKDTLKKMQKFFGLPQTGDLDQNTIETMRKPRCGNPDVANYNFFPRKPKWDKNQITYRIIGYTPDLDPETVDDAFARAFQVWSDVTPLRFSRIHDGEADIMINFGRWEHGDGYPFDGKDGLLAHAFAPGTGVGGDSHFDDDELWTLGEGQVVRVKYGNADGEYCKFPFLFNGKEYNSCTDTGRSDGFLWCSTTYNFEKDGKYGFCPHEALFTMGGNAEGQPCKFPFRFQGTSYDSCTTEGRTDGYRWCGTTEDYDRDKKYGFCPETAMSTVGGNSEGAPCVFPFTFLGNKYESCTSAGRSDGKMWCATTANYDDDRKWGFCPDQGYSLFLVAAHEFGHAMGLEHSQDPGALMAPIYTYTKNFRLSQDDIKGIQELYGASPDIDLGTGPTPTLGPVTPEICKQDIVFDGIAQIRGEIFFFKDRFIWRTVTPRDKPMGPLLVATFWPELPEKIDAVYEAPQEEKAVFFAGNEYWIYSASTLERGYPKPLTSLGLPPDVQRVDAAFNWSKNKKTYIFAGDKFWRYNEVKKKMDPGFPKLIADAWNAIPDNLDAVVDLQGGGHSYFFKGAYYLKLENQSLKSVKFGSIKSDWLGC

[2] = biological target: 26S proteasome non-ATPase regulatory subunit 14 (Homo sapiens, UniProt O00487); test: inhibition of proteasome subunit RPN11 – biochemical, fluorescence polarization, uHTS hits, confirmation (AID 602368); type: functional
Sequence of 26S proteasome non-ATPase regulatory subunit 14 (O00487 whole entry): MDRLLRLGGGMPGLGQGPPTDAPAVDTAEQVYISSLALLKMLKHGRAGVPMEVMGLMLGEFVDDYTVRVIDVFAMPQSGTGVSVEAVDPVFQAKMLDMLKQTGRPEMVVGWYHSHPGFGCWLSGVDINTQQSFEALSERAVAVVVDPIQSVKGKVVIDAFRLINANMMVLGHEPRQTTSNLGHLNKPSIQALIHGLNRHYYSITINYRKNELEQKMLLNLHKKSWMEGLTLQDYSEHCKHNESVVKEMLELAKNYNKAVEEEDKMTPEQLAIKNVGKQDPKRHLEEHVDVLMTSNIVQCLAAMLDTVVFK

[3] = Luminescence Cell-Based Dose Response HTS to Identify Activators of Luciferase Translation or Activity in H4 […] Cells. [Related pubchem assays: 1829 (Project Summary), 1814 (Primary HTS)]; type: functional
[4] = biological target: T1, Rac GTPase-activating protein 1 (Homo sapiens, UniProt Q9H0H5); test: blockers of MgcRacGAP-driven Rac1 GTP hydrolysis – biochemical, ADP Hunter fluorescence, primary and confirmatory, confirmation (AID 624330); type: functional
T1 sequence (Q9H0H5 whole entry): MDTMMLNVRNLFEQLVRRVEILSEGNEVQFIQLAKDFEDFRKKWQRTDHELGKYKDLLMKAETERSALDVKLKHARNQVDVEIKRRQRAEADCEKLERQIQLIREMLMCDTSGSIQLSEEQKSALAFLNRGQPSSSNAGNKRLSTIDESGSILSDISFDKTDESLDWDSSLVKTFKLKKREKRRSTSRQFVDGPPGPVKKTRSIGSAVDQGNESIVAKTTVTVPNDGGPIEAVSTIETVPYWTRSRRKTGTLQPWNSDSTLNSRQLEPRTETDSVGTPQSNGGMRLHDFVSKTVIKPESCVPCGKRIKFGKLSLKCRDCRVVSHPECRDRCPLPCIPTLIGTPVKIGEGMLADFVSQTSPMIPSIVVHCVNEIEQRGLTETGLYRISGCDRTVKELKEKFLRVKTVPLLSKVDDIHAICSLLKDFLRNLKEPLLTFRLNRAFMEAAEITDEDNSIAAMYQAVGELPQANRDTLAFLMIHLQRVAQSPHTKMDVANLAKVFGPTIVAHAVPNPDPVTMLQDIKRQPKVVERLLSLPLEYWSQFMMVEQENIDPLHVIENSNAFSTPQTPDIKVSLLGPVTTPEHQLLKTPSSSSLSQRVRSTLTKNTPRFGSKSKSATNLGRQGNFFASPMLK

[5] = Luminescence Cell-Based Dose Confirmation HTS to Identify Activators of 5'UTR Stem-Loop Driven Alpha-Synuclein mRNA Translation in H4 Neuroglioblastoma Cells. [Related pubchem assays: 1829 (Project Summary), 1814 (Primary HTS)]; type: functional
Interleukin-8 [6] = biological target: T2, Interleukin-8 (Homo sapiens, UniProt P10145); test: Dose Response confirmation of uHTS small molecule hits for cystic fibrosis induced NFkb Inhibitors in a TNFa-induced IL8 counterscreen.; type: functional; details: read-out: IC50_Mean
T2 sequence (P10145 whole entry): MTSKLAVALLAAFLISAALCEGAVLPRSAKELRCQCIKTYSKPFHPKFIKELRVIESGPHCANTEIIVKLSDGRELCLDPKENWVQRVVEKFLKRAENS

Interleukin-8 [7] = biological target: T2, Interleukin-8; test: Dose Response confirmation of uHTS small molecule hits for cystic fibrosis induced NFkb Inhibitors in a PAF-induced IL8 counterscreen.; type: functional; details: read-out: IC50_Mean
[8] = biological target: Heat shock protein HSP 90-alpha (Homo sapiens, UniProt P07900); type: functional, organism-based
[9] = NIH3T3 cell viability loss – ATP luminescence, mouse fibroblasts, counter-screen, dose response (AID 2010); type: functional, cell-based;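 note: cells exposed to compound for about 90 hours before reading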
[10] = biological target: Aryl hydrocarbon receptor (Homo sapiens, UniProt P35869); details: Potency;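 note: confirmatory quantitative high-throughput screen measuring activation of the AhR signaling pathway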
Sequence of Aryl hydrocarbon receptor (P35869 whole entry): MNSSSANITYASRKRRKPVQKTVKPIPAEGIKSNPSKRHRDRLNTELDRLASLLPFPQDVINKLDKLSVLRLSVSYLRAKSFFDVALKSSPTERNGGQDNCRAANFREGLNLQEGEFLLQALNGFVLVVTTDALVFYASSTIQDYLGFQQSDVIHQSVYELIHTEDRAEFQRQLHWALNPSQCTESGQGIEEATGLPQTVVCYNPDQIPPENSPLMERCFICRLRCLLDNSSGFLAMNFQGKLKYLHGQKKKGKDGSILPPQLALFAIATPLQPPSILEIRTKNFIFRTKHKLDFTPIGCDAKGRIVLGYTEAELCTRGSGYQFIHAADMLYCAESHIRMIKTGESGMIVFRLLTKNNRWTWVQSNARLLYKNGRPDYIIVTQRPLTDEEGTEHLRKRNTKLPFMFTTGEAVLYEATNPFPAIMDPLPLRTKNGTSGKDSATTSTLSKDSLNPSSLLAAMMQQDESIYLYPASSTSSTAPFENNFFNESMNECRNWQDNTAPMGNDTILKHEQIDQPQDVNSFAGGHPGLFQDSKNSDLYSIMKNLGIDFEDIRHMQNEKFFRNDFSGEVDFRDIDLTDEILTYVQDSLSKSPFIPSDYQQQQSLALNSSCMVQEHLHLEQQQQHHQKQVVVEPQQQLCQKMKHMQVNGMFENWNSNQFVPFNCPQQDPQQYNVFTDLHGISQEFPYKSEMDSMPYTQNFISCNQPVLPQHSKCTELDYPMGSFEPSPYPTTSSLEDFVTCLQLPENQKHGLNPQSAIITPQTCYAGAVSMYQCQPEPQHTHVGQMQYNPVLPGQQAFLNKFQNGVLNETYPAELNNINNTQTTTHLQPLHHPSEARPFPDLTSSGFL

[11] = Trypanosoma cruzi growth suppression in host cells – NIH3T3 host cells, beta-gal luminescence, confirmation (AID 2044); type: functional, cell-based;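 note: intracellular parasites grown in NIH/3T3 mouse fibroblasts as host cells; luminescent beta-galactosidase reporter signal from transgenic T. cruzi replicating inside host cells; inhibitors lower the luminescence signal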
[12] = viability loss of HPDE-C7K cells – cell-based, fluorescence, HTS, primary screen (AID 431); type: functional; details: Homo sapiens
[13] = HPDE-C7 pancreatic duct cell viability loss – fluorescence, HTS (AID 430); type: functional, cell-based; details: Homo sapiens
[14] = viability of HCT116 lacking mutant beta-catenin – cell-based, human colon tumor, dose response (AID 1045); type: functional;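 note: HCT116 colon tumor cells with beta catenin knocked out; cells exposed to compound for 60 hours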
[15] = viability of PTEN-deleted HCT116 cells – cell-based, HCT116 PTEN knockout, dose response (AID 1047); type: functional;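 note: HCT116 colon tumor cells with PTEN knocked out; cells exposed to compound for 60 hours before readout; potency for loss of cell viability measured by luminescence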
[16] = biological target: T3, Tyrosine-protein phosphatase non-receptor type 22 (Homo sapiens, UniProt Q9Y2R2); test: PTPN22 enzyme inhibitors – biochemical, fluorescence, LYP catalytic domain, selectivity assay for LMPTP inhibitor project, dose response (AID 652006); type: functional; details: read-out: IC50_Mean
T3 sequence (Q9Y2R2 whole entry): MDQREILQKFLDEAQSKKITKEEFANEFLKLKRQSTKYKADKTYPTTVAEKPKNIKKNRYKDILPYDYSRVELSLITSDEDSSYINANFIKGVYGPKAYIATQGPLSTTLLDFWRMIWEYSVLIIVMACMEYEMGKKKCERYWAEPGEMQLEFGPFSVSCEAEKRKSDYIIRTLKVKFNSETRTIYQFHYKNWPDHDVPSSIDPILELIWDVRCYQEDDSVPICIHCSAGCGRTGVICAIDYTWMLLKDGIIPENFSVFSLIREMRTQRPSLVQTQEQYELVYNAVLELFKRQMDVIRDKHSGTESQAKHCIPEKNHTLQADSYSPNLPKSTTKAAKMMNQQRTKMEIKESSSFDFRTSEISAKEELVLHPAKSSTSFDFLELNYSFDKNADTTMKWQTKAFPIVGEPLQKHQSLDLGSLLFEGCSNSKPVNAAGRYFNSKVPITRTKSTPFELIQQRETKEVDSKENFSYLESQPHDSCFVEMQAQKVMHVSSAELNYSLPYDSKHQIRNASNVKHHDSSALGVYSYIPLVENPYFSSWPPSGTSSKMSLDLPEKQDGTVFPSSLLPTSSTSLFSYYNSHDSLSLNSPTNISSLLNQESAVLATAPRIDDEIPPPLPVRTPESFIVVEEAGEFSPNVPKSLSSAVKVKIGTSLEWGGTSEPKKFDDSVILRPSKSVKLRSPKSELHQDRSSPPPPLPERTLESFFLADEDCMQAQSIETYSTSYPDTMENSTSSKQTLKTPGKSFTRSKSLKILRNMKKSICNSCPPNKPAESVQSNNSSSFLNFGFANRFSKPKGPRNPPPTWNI

[17] = biological target: T4, Low molecular weight phosphotyrosine protein phosphatase (Homo sapiens, UniProt P24666); type: functional; details: read-out: IC50_Mean;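 note: Dose-response confirmation assay measuring inhibition of LMPTP enzyme activity by fluorescence intensity read-out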
T4 sequence (P24666 whole entry): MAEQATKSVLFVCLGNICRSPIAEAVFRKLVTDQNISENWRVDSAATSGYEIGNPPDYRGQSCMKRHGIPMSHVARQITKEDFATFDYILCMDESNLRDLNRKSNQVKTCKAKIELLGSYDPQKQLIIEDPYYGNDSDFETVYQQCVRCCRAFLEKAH

Fatty acid synthase [18] = biological target: T5, Fatty acid synthase (Homo sapiens, UniProt P49327); test: inhibition of human FAS-TE enzyme activity – biochemical, endpoint fluorescence intensity, uHTS hits, dose response (AID 624327); type: functional;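 note: fluorescence from hydrolysis of an O-methyl fluorescein acyl ester substrate by the enzyme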
T5 sequence (P49327 whole entry): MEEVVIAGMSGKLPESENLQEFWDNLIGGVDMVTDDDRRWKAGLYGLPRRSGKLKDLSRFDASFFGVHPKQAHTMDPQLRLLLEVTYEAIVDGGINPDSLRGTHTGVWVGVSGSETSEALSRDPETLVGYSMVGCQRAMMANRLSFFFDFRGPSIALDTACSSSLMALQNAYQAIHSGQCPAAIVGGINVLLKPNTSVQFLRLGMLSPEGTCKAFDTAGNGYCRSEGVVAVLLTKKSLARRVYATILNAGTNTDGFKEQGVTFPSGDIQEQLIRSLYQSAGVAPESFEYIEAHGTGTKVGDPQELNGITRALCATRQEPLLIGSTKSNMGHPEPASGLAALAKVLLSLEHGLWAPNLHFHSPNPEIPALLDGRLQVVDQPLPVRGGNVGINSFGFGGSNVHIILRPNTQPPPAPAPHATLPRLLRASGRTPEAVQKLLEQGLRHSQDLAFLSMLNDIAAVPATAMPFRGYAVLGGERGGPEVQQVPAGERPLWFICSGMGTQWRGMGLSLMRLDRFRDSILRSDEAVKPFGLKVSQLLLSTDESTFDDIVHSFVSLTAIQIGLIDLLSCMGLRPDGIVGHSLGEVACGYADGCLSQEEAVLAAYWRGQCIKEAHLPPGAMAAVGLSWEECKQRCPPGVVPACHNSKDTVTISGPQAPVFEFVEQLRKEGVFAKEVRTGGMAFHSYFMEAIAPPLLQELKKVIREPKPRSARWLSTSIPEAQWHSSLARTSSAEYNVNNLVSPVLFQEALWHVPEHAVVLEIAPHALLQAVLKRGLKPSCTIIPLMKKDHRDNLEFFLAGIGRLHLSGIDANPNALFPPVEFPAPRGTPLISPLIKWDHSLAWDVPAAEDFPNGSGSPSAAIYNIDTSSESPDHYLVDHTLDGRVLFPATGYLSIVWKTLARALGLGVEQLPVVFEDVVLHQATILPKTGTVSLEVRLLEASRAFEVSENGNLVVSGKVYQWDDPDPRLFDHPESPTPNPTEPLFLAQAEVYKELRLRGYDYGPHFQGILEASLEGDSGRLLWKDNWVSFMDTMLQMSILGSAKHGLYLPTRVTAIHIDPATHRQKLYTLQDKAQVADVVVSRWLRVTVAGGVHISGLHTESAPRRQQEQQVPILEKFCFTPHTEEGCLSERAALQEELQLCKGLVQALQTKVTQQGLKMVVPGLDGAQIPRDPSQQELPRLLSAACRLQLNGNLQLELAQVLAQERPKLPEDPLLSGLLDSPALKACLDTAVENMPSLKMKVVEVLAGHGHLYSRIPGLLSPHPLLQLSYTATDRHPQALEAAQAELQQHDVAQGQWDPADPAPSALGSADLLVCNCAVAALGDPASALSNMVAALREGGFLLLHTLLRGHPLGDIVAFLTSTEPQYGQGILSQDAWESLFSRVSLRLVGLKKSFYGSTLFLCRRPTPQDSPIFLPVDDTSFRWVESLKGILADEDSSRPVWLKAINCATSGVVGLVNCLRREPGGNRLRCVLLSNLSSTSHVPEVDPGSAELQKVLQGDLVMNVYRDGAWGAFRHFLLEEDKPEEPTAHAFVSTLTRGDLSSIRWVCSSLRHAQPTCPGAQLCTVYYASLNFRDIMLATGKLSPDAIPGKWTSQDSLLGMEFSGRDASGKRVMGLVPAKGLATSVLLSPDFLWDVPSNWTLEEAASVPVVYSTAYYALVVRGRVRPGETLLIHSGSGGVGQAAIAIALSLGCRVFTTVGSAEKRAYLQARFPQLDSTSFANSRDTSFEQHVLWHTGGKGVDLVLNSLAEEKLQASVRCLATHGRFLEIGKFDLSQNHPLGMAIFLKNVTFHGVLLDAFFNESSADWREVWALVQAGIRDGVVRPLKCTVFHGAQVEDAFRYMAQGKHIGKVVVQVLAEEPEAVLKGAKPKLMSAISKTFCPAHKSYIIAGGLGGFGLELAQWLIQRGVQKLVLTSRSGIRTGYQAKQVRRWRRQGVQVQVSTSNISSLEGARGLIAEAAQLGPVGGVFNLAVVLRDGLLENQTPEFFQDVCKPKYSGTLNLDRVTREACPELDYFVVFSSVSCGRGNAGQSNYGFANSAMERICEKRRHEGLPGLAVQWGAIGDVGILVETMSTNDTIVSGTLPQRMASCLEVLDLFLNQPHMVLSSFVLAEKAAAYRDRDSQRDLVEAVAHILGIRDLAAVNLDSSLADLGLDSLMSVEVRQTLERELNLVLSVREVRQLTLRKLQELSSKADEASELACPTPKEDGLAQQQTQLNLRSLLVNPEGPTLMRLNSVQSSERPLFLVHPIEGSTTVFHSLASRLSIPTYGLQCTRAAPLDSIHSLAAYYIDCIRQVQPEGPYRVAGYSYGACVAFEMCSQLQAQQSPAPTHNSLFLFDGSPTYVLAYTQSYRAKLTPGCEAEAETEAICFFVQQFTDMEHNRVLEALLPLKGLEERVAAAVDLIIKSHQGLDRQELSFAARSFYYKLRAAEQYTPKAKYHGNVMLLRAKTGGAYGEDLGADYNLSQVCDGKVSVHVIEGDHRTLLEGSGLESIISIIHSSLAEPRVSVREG

Fatty acid synthase [19] = biological target: T5, Fatty acid synthase; test: inhibition of human FAS-TE enzyme activity – biochemical, kinetic fluorescence intensity, dose response (AID 624326); type: functional;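 note: rate of fluorescence rise from hydrolysis of a fluorogenic O-methyl fluorescein ester substrate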
Melanocortin receptor 4 = Melanocortin receptor 4 (Homo sapiens, UniProt P32245); test: inhibitors of MC4R cAMP signaling – cell-based, TR-FRET, biased antagonists, dose response (AID 602298); type: functional;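 note: antagonist potency against agonist-stimulated cAMP production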
Sequence of Melanocortin receptor 4 (P32245 whole entry): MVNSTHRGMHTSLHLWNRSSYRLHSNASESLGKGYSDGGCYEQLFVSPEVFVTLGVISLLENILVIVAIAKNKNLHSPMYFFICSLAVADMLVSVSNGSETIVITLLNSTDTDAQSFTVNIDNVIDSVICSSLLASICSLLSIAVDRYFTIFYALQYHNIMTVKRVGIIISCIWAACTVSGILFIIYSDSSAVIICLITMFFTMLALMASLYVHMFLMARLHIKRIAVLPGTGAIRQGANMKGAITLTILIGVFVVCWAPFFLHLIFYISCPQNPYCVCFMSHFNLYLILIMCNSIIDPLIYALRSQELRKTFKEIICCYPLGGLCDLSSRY

[20] = cAMP pathway inhibition in counterscreen cell line – TR-FRET cAMP detection, counter-screen for MC4R biased antagonist project, dose response (AID 602305); type: functional, cell-based;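 note: U2OS cells stimulated with forskolin near its EC80 as the cAMP inducer; potency is for inhibition of forskolin-stimulated cAMP signaling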
[21] = fluconazole-exposed Candida albicans growth modulators – fluorescence, retest, confirmation (AID 2467); type: functional, cell-based
[22] = biological target: ATP-dependent molecular chaperone HSP82 (Candida albicans (strain WO-1) (Yeast), UniProt C4YTQ8); test: steroid-induced GRE reporter decrease in yeast – S. cerevisiae, luminescence, Hsp90 inhibitor project, dose response (AID 2400); type: functional, cell-based;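 note: beta-galactosidase luminescence from glucocorticoid response element reporter as proxy for Hsp90 function; inhibitor potency where signal loss means Hsp90 inhibition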
[23] = NIH-3T3 fibroblast cytotoxicity, dose response, cytotoxicity control, cell-based, fluorescence, Alamar Blue, secondary assay (AID 2327); type: functional;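 note: NIH-3T3 mouse fibroblasts cultured with fluconazole at 8 µg/mL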
[24] = biological target: T6, Serine/threonine-protein phosphatase (Candida dubliniensis (strain CD36 / CBS 7987 / NCPF 3949 / NRRLY-17841) (Yeast), UniProt B9W6M3); test: blockers of CaCl2-induced CDRE-lacZ signaling – S. cerevisiae, luminescence, secondary, dose response (AID 2388); type: functional, cell-based;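 note: yeast reporter cells carrying a calcineurin-responsive lacZ construct stimulated with calcium chloride; luminescent beta-galactosidase reporter signal in whole cells rather than isolated phosphatase activity; potency for inhibition where a drop in reporter signal means calcineurin blockade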
T6 sequence (B9W6M3 whole entry): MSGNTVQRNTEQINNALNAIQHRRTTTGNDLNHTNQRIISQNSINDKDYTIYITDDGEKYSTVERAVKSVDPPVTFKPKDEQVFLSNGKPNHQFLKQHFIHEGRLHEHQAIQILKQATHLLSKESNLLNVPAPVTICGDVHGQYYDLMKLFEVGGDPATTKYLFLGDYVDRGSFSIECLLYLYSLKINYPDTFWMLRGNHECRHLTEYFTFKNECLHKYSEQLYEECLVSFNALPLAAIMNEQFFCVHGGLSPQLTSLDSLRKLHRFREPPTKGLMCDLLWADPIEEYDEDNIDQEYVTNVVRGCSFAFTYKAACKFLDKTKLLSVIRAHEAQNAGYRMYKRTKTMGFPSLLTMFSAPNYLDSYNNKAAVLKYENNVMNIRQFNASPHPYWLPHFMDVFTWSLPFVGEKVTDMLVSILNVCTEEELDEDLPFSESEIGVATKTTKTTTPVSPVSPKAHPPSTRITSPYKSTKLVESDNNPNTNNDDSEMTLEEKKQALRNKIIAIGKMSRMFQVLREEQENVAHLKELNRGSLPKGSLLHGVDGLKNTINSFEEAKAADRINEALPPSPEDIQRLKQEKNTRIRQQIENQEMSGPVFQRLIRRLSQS

[25] = biological target: Benomyl/methotrexate resistance protein (Candida albicans, UniProt P28873); test: Candida albicans Mdr1 pump inhibition curves – singleplex, Cherry Pick1 hits, dose response (AID 588608); type: functional
[26] = viability loss in HeLa cells – cytotoxicity control for MgcRacGAP inhibitor project, dose response (AID 624300); type: functional
[27] = bead-based luminescence quenchers, dual-tagged ARNT – biochemical, AlphaScreen, cherry-pick, artefact control for ARNT-TACC3 interaction inhibitor project, dose response (AID 651705); type: functional;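 note: AlphaScreen bead proximity signal that flags compounds interfering with the detection technology; potency reflects signal decrease which marks the compound as an assay artifact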
[28] = Vero cell cytotoxicity, cytotoxicity control for M. tuberculosis inhibitor project, purified and synthesized samples, set 3 (AID 504684); type: functional
[29] = A Cell Based Secondary Assay to Explore Cytotoxicity in THP-1 Cells of Compounds that Modulate Mycobacterium tuberculosis in Media Containing Glycerol versus Media without Glycerol (2).; type: functional

Cc1c(N=Nc2ccc(N(C)C)cc2)c(=O)n(-c2ccccc2)n1C
IC50 (Prothrombin): 42.8 µM (active)
EC50 (H4): 34.5 µM (active)
IC50 [1]: > 100 µM (inactive)
IC50 [2]: 73.1 µM (active)
EC50 [3]: 6.8 µM (active)
IC50 [4]: 56.9 µM (active)
EC50 [5]: 11.1 µM (active)

CN1CCC(OC(=O)c2cc3cc(Cl)cc(Cl)c3oc2=O)CC1
IC50 (Interleukin-8 [6]): 8.62 µM (active)
IC50 (Interleukin-8 [7]): 3.45 µM (active)

CCCC1COC(Cn2cncn2)(c2ccc(Cl)cc2Cl)O1 (centres undefined) [PROPICONAZOLE]
AC50 [8]: < 0.195 µM (active)
EC50 [9]: > 60 µM (not active)
EC50 (cells): 0.041 µM (active)
AC50 [10]: 70.8 µM (inconclusive)
EC50 [11]: < 0.1 µM (active)

CC(=O)Nc1ccc(S(=O)(=O)N2CCN(c3nc(NC4CCCC4)c4ccccc4n3)CC2)cc1
EC50 [12]: 13.2 µM (active)
EC50 [13]: 12.4 µM (active)
EC50 [14]: 12.7 µM (active)
EC50 [15]: 13.7 µM (active)
IC50 [16]: 28.2 µM (inactive)
IC50 [17]: 20.7 µM (inactive)

COc1ccc(NC(=O)Nc2cccc3c2O[C@H](CN(C)C(=O)Nc2ccc(C(F)(F)F)cc2)[C@@H](C)CN([C@H](C)CO)C3=O)cc1
IC50 (Fatty acid synthase [18]): 11.6 µM (active)
IC50 (Fatty acid synthase [19]): 7.98 µM (active)
IC50 (Melanocortin receptor 4): 23.1 µM (inactive)
IC50 [20]: > 64.6 µM (inactive)

Cn1cc(C(c2ccccn2)c2cn(C)c3ccccc23)c2ccccc21
EC50 [21]: 0.157 µM (active)
EC50 [22]: > 150 µM (inactive)
EC50 [23]: 55.6 µM (active)
EC50 [24]: > 180 µM (inactive)
EC50 [25]: 7.76 µM (active)

CCc1ccc(O)c(/N=C/c2cccc(C)c2O)c1
IC50 (Prothrombin): 11.8 µM (active)
CC50 [26]: 100 µM (active)
IC50 [1]: > 100 µM (inactive)
IC50 [2]: 29.4 µM (active)
IC50 [4]: 45.5 µM (active)

O=C(COC(=O)CCN1C(=O)c2cccc([N+](=O)[O-])c2C1=O)NCc1ccccc1
IC50 (Melanocortin receptor 4): > 64.6 µM (inactive)
IC50 [20]: > 64.6 µM (inactive)

O=C(COc1ccccc1)Nc1nnc(-c2ccccc2)o1
AC50 [27]: 93.8 µM (active)

CCOC(=O)CNC(=O)[C@H](Cc1ccccc1)NC(=O)OCc1ccccc1 (Cbz-Phe-Gly-OEt)
CC50 [28]: 32.1 µM (active)
CC50 [29]: 58.5 µM (active)
